Activity calls are given as the source filed them.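 Rule for the calls: active = inhibition above 55% when tested at 5 µM; inactive = the rest.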
These molecules were tested against Protein AF-9 (Homo sapiens) (UniProt P42568) (assay: single-concentration AF9–DOT1L binding disruption – biochemical, AlphaLISA, percent inhibition, MBP-tagged AHD (AID 1794804)). Conditions: MBP-AF9 AHD / biotin-DOT1L peptide binding.
Protein AF-9 (Homo sapiens), sequence (P42568 whole entry, looked up): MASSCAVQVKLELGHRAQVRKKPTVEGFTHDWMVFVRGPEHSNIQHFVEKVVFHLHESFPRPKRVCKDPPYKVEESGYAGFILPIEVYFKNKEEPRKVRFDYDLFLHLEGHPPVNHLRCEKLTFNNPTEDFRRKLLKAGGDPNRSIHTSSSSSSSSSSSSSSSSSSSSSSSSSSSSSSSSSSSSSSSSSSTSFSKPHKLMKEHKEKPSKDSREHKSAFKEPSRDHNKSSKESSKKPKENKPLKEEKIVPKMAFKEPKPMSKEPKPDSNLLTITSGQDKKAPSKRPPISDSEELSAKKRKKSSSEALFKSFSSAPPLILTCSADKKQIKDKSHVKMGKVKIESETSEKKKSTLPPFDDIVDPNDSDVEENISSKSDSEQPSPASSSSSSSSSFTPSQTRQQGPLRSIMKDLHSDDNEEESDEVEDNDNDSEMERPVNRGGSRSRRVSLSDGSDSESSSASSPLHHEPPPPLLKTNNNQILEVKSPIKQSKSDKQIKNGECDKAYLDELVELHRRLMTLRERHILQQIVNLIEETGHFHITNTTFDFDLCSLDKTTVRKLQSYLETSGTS

Compound | outcome
O=C(NCC1CCNCC1)c1cc2ccc(-c3ccc(C4CCCCC4)cc3)cc2o1 | inactive
O=C(NCC1CCNCC1)c1cc2ccc(-c3ccc(CCO)cc3)cc2[nH]1 | inactive
N#Cc1ccc(-c2ccc3cc(C(=O)NCC4CCNCC4)oc3c2)cc1 | inactive
O=C(NCC1CCNCC1)c1cc2ccc(-c3ccc(N4CCNCC4)cc3)cc2[nH]1 | inactive
O=C(NCC1CCNCC1)c1cc2ccc(-c3cccc(-c4ccccc4)c3)cc2o1 | inactive

Next, values leading:

outcome | Compound
inactive | CC(C)(C)c1ccc(-c2ccc3cc(C(=O)NCC4CCNCC4)sc3c2)cc1
inactive | CC(C)(C)c1ccc(-c2ccc3sc(C(=O)NCC4CCNCC4)cc3c2)cc1
inactive | N#Cc1ccc(-c2ccc3sc(C(=O)NCC4CCNCC4)cc3c2)cc1

Same assay, conditions: MBP-AF9 AHD / biotin-DOT1L peptide binding, at 5 µM, stronger effect = higher value

Compound | inhibition
O=C(NCC1CCNCC1)c1cc2ccc(Oc3ccc(Oc4ccc(Cl)cc4)cc3)cc2o1 | 20% (inactive)
O=C(NCC1CCNCC1)c1cc2ccc(N3CCC(N4CCCCC4)CC3)cc2s1 | 14% (inactive)
CC(=O)c1ccc(-c2ccc3cc(C(=O)NCC4CCNCC4)[nH]c3c2)cc1 | 37% (inactive)
CCN(CC)c1ccc(-c2ccc3cc(C(=O)NCC4CCNCC4)oc3c2)cc1 | 30% (inactive)
O=C(NCC1CCNCC1)c1cc2ccc(-c3ccc(C(=O)N4CCCC4)cc3)cc2o1 | 1% (inactive)
O=C(NCC1CCNCC1)c1cc2ccc(-c3ccsc3)cc2[nH]1 | 10% (inactive)
CN1CCN(c2ccc(-c3ccc4cc(C(=O)NCC5CCNCC5)oc4c3)cc2)CC1 | 32% (inactive)
O=C(NCC1CCNCC1)c1cc2cc(-c3ccc(N4CCNCC4)cc3)ccc2[nH]1 | 36% (inactive)
O=C(NCc1ccc(-c2ccc3cc(C(=O)NCC4CCNCC4)oc3c2)cc1)OCc1ccccc1 | 27% (inactive)
O=C(NCC1CCNCC1)c1cc2ccc(Nc3ccc(OC(F)(F)F)cc3)cc2o1 | 23% (inactive)
O=C(NCC1CCNCC1)c1cc2ccc(N3CCC(N4CCCC4)CC3)cc2s1 | 20% (inactive)
O=C(NCC1CCNCC1)c1cc2cc(-c3ccc(-c4ccsc4)cc3)ccc2[nH]1 | 14% (inactive)
NCc1ccc(-c2ccc3cc(C(=O)NCC4CCNCC4)[nH]c3c2)cc1 | 11% (inactive)
N#Cc1cccc(-c2ccc3cc(C(=O)NCC4CCNCC4)[nH]c3c2)c1 | 0% (inactive)
O=C(NCC1CCNCC1)c1cc2cc(-c3ccc(N4CCOCC4)cc3)ccc2[nH]1 | 52% (inactive)
N#Cc1ccc(-c2ccc3[nH]c(C(=O)NCC4CCNCC4)cc3c2)cc1F | 8% (inactive)
O=C(NCC1CCNCC1)c1coc2cc(-c3ccc(N4CCCCC4)cc3)ccc12 | 59%

Compound | inhibition
COc1ccc(Oc2ccc3cc(C(=O)NCC4CCNCC4)oc3c2)cc1 | 24% (inactive)
O=C(NCC1CCNCC1)c1cc2ccc(-c3ccc(N4CCNCC4)cc3)cc2o1 | 38% (inactive)
CS(=O)(=O)c1ccc(-c2ccc3cc(C(=O)NCC4CCNCC4)oc3c2)cc1 | 19% (inactive)
O=C(NCC1CCNCC1)c1cc2ccc(-c3ccc4c(c3)OCCO4)cc2o1 | 33% (inactive)
O=C(NCC1CCNCC1)c1cc2ccc(Oc3ccc(Oc4ccc(Cl)cc4)cc3)cc2s1 | 50% (inactive)
O=C(NCC1CCNCC1)c1cc2ccc(-c3ccc(N4CCOCC4)cc3)cc2o1 | 40% (inactive)
O=C(NCC1CCNCC1)c1cc2ccc(-c3ccc(C(=O)N4CCCCCC4)cc3)cc2o1 | 0% (inactive)
O=C(NCC1CCNCC1)c1cc2ccc(Nc3ccc(N4CCCCC4)cc3)cc2o1 | 93%
O=C(NCC1CCNCC1)c1cc2ccc(-c3ccc(C(=O)N4CCC(N5CCCCC5)CC4)cc3)cc2s1 | 0% (inactive)
O=C(NCC1CCNCC1)c1c[nH]c2ccc(-c3ccc(N4CCCCC4)cc3)cc12 | 43% (inactive)
O=C(NCC1CCNCC1)c1cc2ccc(-c3ccc(-c4ccccc4)cc3)cc2o1 | 0% (inactive)
O=C(NCC1CCNCC1)c1cc2ccc(-c3ccc(C(=O)N4CCC(N5CCCCC5)CC4)cc3)cc2o1 | 0% (inactive)
O=C(NCC1CCNCC1)c1cc2ccc(-c3ccc(N4CCOCC4)cc3)cc2[nH]1 | 29% (inactive)
O=C(NCC1CCNCC1)c1cc2ccc(-c3ccc(C(=O)N4CCCCC4)cc3)cc2o1 | 0% (inactive)
O=C(NCC1CCNCC1)c1cc2ccc(-c3ccc(C4CCCCC4)cc3)cc2[nH]1 | 31% (inactive)
Cc1cc(C#N)ccc1-c1ccc2[nH]c(C(=O)NCC3CCNCC3)cc2c1 | 0% (inactive)
O=C(NCC1CCNCC1)c1cc2ccc(-c3ccc(C(=O)N4CCC(N5CCCC5)CC4)cc3)cc2s1 | 5% (inactive)

Continued, values first:

inhibition | Compound
31% (inactive) | O=C(NCC1CCNCC1)c1cc2cc(-c3ccc(C(=O)N4CCCCC4)cc3)ccc2s1
47% (inactive) | Cc1ccc(-c2ccc3cc(C(=O)NCC4CCNCC4)sc3c2)cc1
43% (inactive) | COc1ccc(-c2ccc3cc(C(=O)NCC4CCNCC4)sc3c2)cc1
50% (inactive) | N#CCc1ccc(-c2ccc3cc(C(=O)NCC4CCNCC4)sc3c2)cc1
8% (inactive) | O=C(NCC1CCNCC1)c1cc2ccc(-c3ccc(C(=O)N4CCCCC4)cc3)cc2s1
0% (inactive) | O=C(NCC1CCNCC1)c1cc2cc(-c3ccc(C(=O)N4CCCC4)cc3)ccc2s1
21% (inactive) | O=C(NCC1CCNCC1)c1cc2ccc(-c3ccc(F)cc3)cc2s1
40% (inactive) | O=C(NCC1CCNCC1)c1cc2ccc(-c3ccc(N4CCOCC4)cc3)cc2s1
13% (inactive) | CC(C)(C)c1ccc(-c2ccc3[nH]c(C(=O)NCC4CCNCC4)cc3c2)cc1
0% (inactive) | O=C(NCC1CCNCC1)c1cc2ccc(-c3ccc(CO)cc3)cc2s1
25% (inactive) | CCN(CC)c1ccc(-c2ccc3cc(C(=O)NCC4CCNCC4)sc3c2)cc1
14% (inactive) | O=C(NCC1CCNCC1)c1cc2ccc(-c3ccc(OC(F)(F)F)cc3)cc2s1
50% (inactive) | O=C(NCC1CCNCC1)c1cc2ccc(-c3ccc(Cl)cc3)cc2s1
0% (inactive) | O=C(NCC1CCNCC1)c1cc2ccc(-c3ccc(C(=O)N4CCCC4)cc3)cc2s1
0% (inactive) | O=C(NCC1CCNCC1)c1cc2ccc(-c3ccc(O)cc3)cc2s1
45% (inactive) | CC(C)(C)c1ccc(Nc2ccc3sc(C(=O)NCC4CCNCC4)cc3c2)cc1
0% (inactive) | NC(=O)c1ccc(-c2ccc3cc(C(=O)NCC4CCNCC4)sc3c2)cc1
49% (inactive) | CS(=O)(=O)c1ccc(-c2ccc3cc(C(=O)NCC4CCNCC4)sc3c2)cc1
26% (inactive) | N#Cc1ccc(-c2ccc3cc(C(=O)NCC4CCNCC4)sc3c2)cc1F
24% (inactive) | O=C(NCC1CCNCC1)c1cc2cc(Nc3ccc(OC(F)(F)F)cc3)ccc2s1
0% (inactive) | CC(=O)Nc1ccc(-c2ccc3cc(C(=O)NCC4CCNCC4)sc3c2)cc1
45% (inactive) | O=C(NCC1CCNCC1)c1cc2ccc(-c3ccc(CN4CCCCC4)cc3)cc2s1
17% (inactive) | CC(C)(C)c1cccc(-c2ccc3cc(C(=O)NCC4CCNCC4)[nH]c3c2)c1

Same assay, conditions: MBP-AF9 AHD / biotin-DOT1L peptide binding, inhibition, at 20 µM, stronger effect = higher value

Compound | inhibition [%]
O=C(NCC1CCNCC1)c1cc2ccc(-c3ccc(C4CCCCC4)cc3)cc2o1 | 54
O=C(NCC1CCNCC1)c1cc2ccc(-c3ccc(CCO)cc3)cc2[nH]1 | 22
N#Cc1ccc(-c2ccc3cc(C(=O)NCC4CCNCC4)oc3c2)cc1 | 38
O=C(NCC1CCNCC1)c1cc2ccc(-c3ccc(N4CCNCC4)cc3)cc2[nH]1 | 48
O=C(NCC1CCNCC1)c1cc2ccc(-c3cccc(-c4ccccc4)c3)cc2o1 | 49

Second part, the molecule after the results:

inhibition [%] | Compound
70 | CC(C)(C)c1ccc(-c2ccc3cc(C(=O)NCC4CCNCC4)sc3c2)cc1
59 | CC(C)(C)c1ccc(-c2ccc3sc(C(=O)NCC4CCNCC4)cc3c2)cc1
30 | N#Cc1ccc(-c2ccc3sc(C(=O)NCC4CCNCC4)cc3c2)cc1
